The nature of this data set: Zeta potential determination. It is filed as physicochemical. As for the experimental part: Size and Zeta potential determinations were conducted on a Zetasizer Nano ZS (ZEN 3600, Malvern Instruments Ltd.). Transmission electron microscopy (TEM) images were determined by a transmission electron microscope (JEM-2100, JEOL). The fluorescence was measured by an F-4600 Fluorescence Spectrophotometer (Japan); the confocal fluorescence images of cells were obtained by a Nikon laser confocal microscope (Nikon, Japan).
The synthesized HMSN were characterized by TEM and dynamic light scattering (DLS). […] Meanwhile, the particle size distribution measured by DLS was mainly around 140 nm (FIG. 2). The experimental data was matched up with each other. […] The particle size of PAMAM (G=1.5) dendrimer was characterized by TEM. […] The particle size distribution measured by DLS was around 8 nm (FIG. 5). […] Meanwhile, to prevent the early leakage of DOX, the DOX was encapsulated by the RVRR peptide and PAMAM/TPE. To verify the successful encapsulation of HMSN/DOX, TEM characterization was conducted. […] Characterized by DLS and Zeta potential, the particle size distribution of the transparent thin layer structure was around 160 nm (FIG. 7), and a Zeta potential was 3.25 mV (FIG. 8).

The structures appear in SMILES notation.

Molecule `COc1cccc2c1C(=O)c1c(O)c3c(c(O)c1C2=O)C[C@@](O)(C(=O)CO)C[C@@H]3O[C@H]1C[C@H](N)[C@H](O)[C@H](C)O1` [DOX, doxorubicin] yielded a zeta potential of 24.3 mV. To `O=C(O)c1ccc(C(=C(c2ccccc2)c2ccccc2)c2ccccc2)cc1` [TPE-COOH, 1-(4-carboxyphenyl)-1,2,2-triphenylethylene] belongs −8.6 mV.

For the origin of these results see patent US12467927B2, “Fluorescence resonance energy transfer (FRET) nanoprobe and preparation method and use thereof” (QILU UNIVERSITY OF TECHNOLOGY, priority 2022, dated 2025).
